Source: US7033829B2, “Method to inhibit cell growth using oligonucleotides” (Trustees of Boston University, priority 2000, dated 2006)
Oligonucleotides are written 5' to 3', each unit as a sugar letter and its base; * is a phosphorothioate linkage, no mark a phosphodiester; rarer units and linkages stand in square brackets, end groups in braces. Plain capitals give the bases only. d = 2'-deoxy (DNA); {P} = phosphate

How the values were obtained:
[1] = Skin penetration of fluorescently-labeled oligonucleotides (ear); type: in vivo, Mice; settings: in propylene glycol, 4 hours
Experimental: The compounds of the present invention were tested for skin penetration and in vivo melanogenic activity. Mice were treated (on their ears) with fluorescently-labeled pTpT or SEQ ID NO: 1 (comprising a 5′ phosphate) in propylene glycol for 4 hours, then ear skin was sectioned and examined by confocal microscopy. […] Thus pTpT and SEQ ID NO: 1 comparably penetrate the skin barrier.

melanin in ear skin = experiment: In vivo melanogenic activity on ears (Fontana Masson); design: species or system mice; settings: 100 μM once daily in propylene glycol; 15 days
Experimental: In another experiment, mice were treated once daily with either 100 μM pTpT or SEQ ID NO: 1 containing a 5′ phosphate in propylene glycol on one ear, or vehicle alone on the other ear. After 15 days, when the ears were sectioned and stained with Fontana Masson to detect melanin compared to vehicle controls, there was a 70% increase in pigmentation in pTpT-treated ears and a 250% increase with SEQ ID NO: 1. Thus, both compounds comprising as few as 2 and as many as 9 nucleotides are effective at producing the in vitro UV-mimetic effects in vivo.

[2] = test system: Apurinic Endonuclease-1 (APE-1); experiment: APE-1 western blot in fibroblasts; type: cell-based, human; settings: 100 μM pTpT; 10 μM or 60 μM SEQ ID NO:5; within 24 hours, sustained at least 48 hours
Experimental: Fibroblasts (human newborn) were maintained in 10% CS-supplemented DMEM containing 100 μM pTpT, 10 μM or 60 μM oligonucleotide pGTTAGGGTTAG (SEQ ID NO:5), or diluent as control. Total cellular proteins were harvested at different intervals after supplementation and processed for western blot analysis. Expression of APE-1, the rate-limiting enzyme in repair of 8-oxoguanine (the principal form of oxidative DNA damage) was studied. The blot was incubated with anti APE-1 antibodies (APE/Ref-1 monoclonal IgG2b, Novus Biologicals, Inc. Littleton, Colo.). Within 24 hours of supplementation with pTpT or the 11mer oligonucleotide having nucleotide sequence SEQ ID NO:5, the 37 kDa APE-1 protein was induced in samples stimulated with the oligonucleotides as compared to diluent control. The induction was sustained for at least 48 hours, when the experiment was terminated. Coomassie blue-stained residual bands on the gel confirmed uniform loading of the different lanes.

LacZ reporter plasmid = experiment: UV-induced mutation frequency in LacZ transgenic mice; type: in vivo
Source text: Transgenic mice carrying multiple genomic copies of a LacZ reporter plasmid were used. One hundred μM pTpT in polypropyleneglycol was applied to one ear and vehicle alone to the other ear, daily for four days. On the fifth day, both ears were exposed to 100 mJ/cm^2 UVB light. This procedure was repeated weekly for 3, 5 or 7 weeks (3 mice/group). One week after the final irradiation, LacZ plasmids were harvested from the ear epidermis. Using methods well known in the art, the plasmids were recovered from genomic DNA by restriction enzyme digestion and specific binding to the LacI protein. Mutant LacZ plasmids were positively selected by transfection into bacteria and growth on selective medium and the mutation frequency was determined.

| Substance | skin penetration (confocal microscopy) [1] | increase in pigmentation compared to vehicle controls (melanin in ear skin) [%] | APE-1 protein [2] | mutation frequency (LacZ reporter plasmid; 100 μM topical, weekly UVB, after 3 weeks (diluent 293)) | lower mutation frequency than diluent treated skin (LacZ reporter plasmid; after 3, 5, and 7 weeks) | mutation frequency (LacZ reporter plasmid; after 5 weeks (diluent 216)) | mutation frequency (LacZ reporter plasmid; after 7 weeks (diluent 322)) |
| --- | --- | --- | --- | --- | --- | --- | --- |
| pGAGTATGAG (DNA, 5' {P}, backbone not given here) [SEQ ID NO: 1] | brightly stained epidermis and hair follicles | 250 |  |  |  |  |  |
| pGTTAGGGTTAG (DNA {P}-dGdTdTdAdGdGdGdTdTdAdG) [SEQ ID NO: 5] |  |  | induced |  |  |  |  |
| thymidine dinucleotide [pTpT] | brightly stained epidermis and hair follicles | 70 | induced | 200 | 20–30% | 155 | 261 |
